Publication PMC8746705, “Comparison of Experimental Strategies to Study L-Type Amino Acid Transporter 1 (LAT1) Utilization by Ligands” (Molecules, 2021)

Key:
Transport Type 2 = assay: Concentration-dependent cellular uptake into BV2 cells, Eadie–Hofstee analysis, Transport Type 2; assay type: cell-based, mouse; details: 1–200 µM, 30 min, mean ± SD, n = 3
Protocol: For the concentration-dependent cellular uptake experiments, the BV2 cells on 24-well plates were incubated with studied compounds (1–200 μM) in pre-warmed HBSS buffer (250 μL) at 37 °C for 30 min. The experiment was then carried out as described for the time-dependent uptake above and the concentration of studied compounds in the cell lysate was analyzed by the LC-MS/MS methods described above and the results were normalized to the total protein concentration. The distinct transport mechanisms were separated from the Michaelis-Menten kinetics by using Eadie–Hofstee plot.
The studied compounds (1–15) were analyzed by using Agilent 1200 Series Rapid Resolution LC System together with an Agilent 6410 Triple Quadrupole Mass Spectrometer equipped with an electrospray ionization source (Agilent Technologies, Santa Clara, CA, USA). The chromatographic separations of analytes were achieved by using a reversed-phase Zobrax SB-C18 column (50 mm × 2.1 mm, 1.8 μm; Agilent Technologies, Santa Clara, CA, USA) by eluting the samples with 0.1% formic acid in water (A) and 0.1% formic in ACN (B). Labetalol and diclofenac were used as internal standards (ISTD) for the prodrugs and parent drugs, respectively. The transitions used for the quantification at the positive ion mode and chromatographic conditions of each compound and their parent drugs are listed in Table S1. The methods of compounds 1–11 have been reported earlier, while the methods of compounds 12–15 are reported herein for the first time.

LAT1 = LAT1 (Mus musculus, UniProt Q9Z127); assay: Cellular uptake of compounds in the presence of LAT1-inhibitor (KMH-233); assay type: cell-based; details: 100 µM compound, 100 µM KMH-233, 30 min, BV2
Summary of the method: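 Cells were pre-exposed 10 min to 100 µM KMH-233, then incubated 30 min in HBSS with 100 µM compound plus inhibitor. Intracellular compound was quantified by LC-MS against a spiked standard curve and normalised to protein.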

[1] = test system: brain amino acids L-Leu, L-Trp, L-Tyr and L-Tyr metabolites; assay: Brain amino acid homeostasis after i.p. dose to mice; assay type: in vivo; details: mouse brain, single i.p. dose 25 µmol/kg; for Brain 3,4-dihydroxyphenylacetic acid levels: compound 2: 2 and 4 h compared to first time point (10 min)
Protocol: Adult male mice weighing 25 ± 5 g were supplied by Envigo (Venray, Netherlands). Mice were housed in stainless steel cages on a 12 h light (07:00–19:00) and 12 h dark (19:00–07:00) cycle at an ambient temperature of 22 ± 1 °C with a relative humidity of 50–60%. All experiments were carried out during the light phase. Tap water and food pellets (Lactamin R36; Lactamin AB, Södertälje, Sweden) were available ad libitum. A dose of 25 µmol/kg of compound 1, 2, or 8–11 was given as a bolus injection (i.p.) to mice. The mice were decapitated at selected time points between (10–360 min) and brain tissues were collected for sample preparation to be analyzed by liquid chromatography-mass spectrometric (LC-MS/MS) analysis.
Brain samples were prepared similarly as described above by homogenizing the pre-weigh tissues with ultrapure water (1:3). Subsequently, 100 µL of the homogenates was taken, and the proteins were precipitated with 300 µL of ACN containing the internal standard (labetalol).
Samples were vortexed and centrifuged at 10,000× g at 4 °C for 10 min. 200 µL of supernatant was mixed with 100 µL of ultrapure water and injected to LC-MS/MS equipment described above. The amounts of three known LAT1-utilizing amino acids, L-Leu, L-Tyr, and L-Trp, and two L-Tyr metabolites, namely p-hydroxyphenylacetate and 3,4-dihydroxyphenylacetic acid, were quantified with a method described earlier. […] Data were acquired using the Agilent MassHunter Workstation Acquisition software (Data Acquisition for Triple Quadrupole Mass Spectrometer, version B.03.01) and processed and analyzed with Quantitative Analysis (B.04.00) software. The lower limit of quantification (LLOQ) for the amino acids in tissue samples was 0.1 nM for L-Leu, L-Tyr, and L-Trp and 1 nM for p-hydroxyphenylacetate and 3,4-dihydroxyphenylacetic acid. […] The concentrations of the amino acids and their metabolites were calculated from the standard curve that was prepared by spiking known amounts of compounds to ACN including the selected internal standard.

[2] = Stability / bioconversion of prodrugs to parent drugs (biological media, 0.1 M NaOH cell lysing); assay type: in vitro ADME; details: cell lysate samples for LC-MS/MS (Table S1 footnote)
Excerpt: LAT1-utilizing prodrugs 1–15 (Figure 1) were selected for this study based on their ability to utilize LAT1 expressed in cells used in our previous studies. Therefore, the syntheses of these compounds are not described herein as they have been reported earlier. These compounds include prodrugs of an investigational immunosuppressive agent, perforin inhibitor (1), non-steroidal anti-inflammatory drugs (NSAIDs), ketoprofen (2–4, 14), salicylic acid (8), flurbiprofen (9 and 12), ibuprofen (10 and 13) and naproxen (11 and 15), as well as the polyphenolic antioxidant, ferulic acid (5–7). […] In addition, all NSAID prodrugs (compounds 2–4, 9–15) were prepared from their pure S-enantiomers. Prodrugs of ferulic acid (compounds 5–7) were mixtures of E- and […], which were interconvertible over time. […] Therefore, both prodrug and the released parent drug proportions were quantified and taken into account when calculating concentrations transported into the cells.
1. LC-MS/MS ionization parameters of compounds 1-15
Table S1. Ionization parameters for the LC-MS/MS methods of the studied compounds.
Precursor Product Fragmentor Collision Flow rate Gradient LLOQ
Compound ion ion(s) Voltage (V) Energy (mL/min) (A:B) (nM) […]
perforin inhibitor 1a and therefore, their transitions with a positive ion mode are reported only as KPF or as a prodrug and parent drug in parentheses. […]
drugs (ferulic acid (FA), flurbiprofen (FLB), ibuprofen (IBU), and naproxen (NPX), respectively), whose transitions with a negative ion mode are reported below the studied LAT1 -utilizing compounds i n parentheses.

LAT1, sequence (Q9Z127 whole entry): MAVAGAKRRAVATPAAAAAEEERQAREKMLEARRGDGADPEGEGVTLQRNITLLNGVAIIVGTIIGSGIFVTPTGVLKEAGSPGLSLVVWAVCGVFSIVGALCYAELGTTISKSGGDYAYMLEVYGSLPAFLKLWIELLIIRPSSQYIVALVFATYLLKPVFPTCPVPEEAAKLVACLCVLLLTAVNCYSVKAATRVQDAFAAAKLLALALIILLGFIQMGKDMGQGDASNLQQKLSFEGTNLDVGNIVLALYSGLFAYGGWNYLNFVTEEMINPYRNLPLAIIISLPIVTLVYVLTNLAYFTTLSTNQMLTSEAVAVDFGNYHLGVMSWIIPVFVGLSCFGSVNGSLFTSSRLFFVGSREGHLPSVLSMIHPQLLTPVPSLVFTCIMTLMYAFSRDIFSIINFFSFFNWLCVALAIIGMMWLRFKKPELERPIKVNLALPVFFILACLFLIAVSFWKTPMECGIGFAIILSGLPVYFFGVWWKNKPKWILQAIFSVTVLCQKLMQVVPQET
LAT1, sequence (P10852 whole entry partner): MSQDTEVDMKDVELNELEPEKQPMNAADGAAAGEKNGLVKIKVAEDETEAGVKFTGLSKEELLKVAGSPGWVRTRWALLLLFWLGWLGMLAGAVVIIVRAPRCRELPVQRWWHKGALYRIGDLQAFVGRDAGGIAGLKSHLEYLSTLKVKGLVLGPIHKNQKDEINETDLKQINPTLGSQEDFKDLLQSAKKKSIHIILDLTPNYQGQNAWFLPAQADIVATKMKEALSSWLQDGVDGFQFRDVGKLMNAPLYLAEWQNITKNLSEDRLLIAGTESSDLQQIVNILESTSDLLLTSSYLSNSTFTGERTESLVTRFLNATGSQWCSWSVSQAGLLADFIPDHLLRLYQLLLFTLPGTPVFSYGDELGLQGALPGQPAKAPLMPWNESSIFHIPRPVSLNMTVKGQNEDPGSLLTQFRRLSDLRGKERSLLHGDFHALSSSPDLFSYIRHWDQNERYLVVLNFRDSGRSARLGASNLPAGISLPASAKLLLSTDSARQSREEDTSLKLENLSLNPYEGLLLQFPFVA

SMILES	Km (Transport Type 2)	Transport Type 2 Vmax (Transport Type 2)	Cellular uptake in the presence of LAT1-inhibitor (LAT1)	Brain 3,4-dihydroxyphenylacetic acid levels [1]	Conversion to parent drug in the analysed samples [2]	Brain p-hydroxyphenylacetate levels ([1]; after 30 min of the bolus injection compared to other time points)
N[C@@H](Cc1cccc(NC(=O)c2ccccc2O)c1)C(=O)O [Compound 8]	41 ± 5 µM	185 ± 10 pmol/mg/min	inhibited significantly	Not detected at all		
COc1cc(C=CC(=O)NCc2cccc(CC(N)C(=O)O)c2)ccc1O (centres unmarked) [Compound 5]	77 ± 13 µM	0.27 ± 0.02 pmol/mg/min	only reductive trends were seen			
COc1cc(/C=C/C(=O)Oc2cccc(C[C@H](N)C(=O)O)c2)ccc1O [Compound 7]	62 ± 14 µM	0.21 ± 0.02 pmol/mg/min	inhibited significantly		partly converted to their parent	
COc1ccc2cc([C@H](C)C(=O)Oc3cccc(C[C@H](N)C(=O)O)c3)ccc2c1 [Compound 15]			inhibited significantly		partly converted to their parent	
C[C@H](C(=O)Nc1cccc(C[C@H](N)C(=O)O)c1)c1cccc(C(=O)c2ccccc2)c1 [Compound 2]	199 ± 50 µM	0.88 ± 0.16 pmol/mg/min	inhibited significantly	significant reduction		
C[C@H](C(=O)Oc1cccc(C[C@H](N)C(=O)O)c1)c1cccc(C(=O)c2ccccc2)c1 [Compound 4]	159 ± 45 µM	231 ± 40 pmol/mg/min	inhibited significantly		fully converted into ketoprofen	
NC(Cc1cccc(C(=O)Oc2ccc(-c3ccc(-c4ccc5c(c4)COC5=O)s3)cc2)c1)C(=O)O (centres unmarked) [Compound 1]	347 ± 26 µM	5067 ± 327 pmol/mg/min	inhibited significantly		partly	significantly lower
C[C@H](C(=O)Nc1cccc(C[C@H](N)C(=O)O)c1)c1ccc(-c2ccccc2)c(F)c1 [Compound 9]			inhibited significantly			
C[C@H](C(=O)Oc1cccc(C[C@H](N)C(=O)O)c1)c1ccc(-c2ccccc2)c(F)c1 [Compound 12]			inhibited significantly		partly converted to their parent	
